Measured values as given in patent US4687762A, “Water soluble drug complex and method for production of same” (Green Cross Corporation, priority 1984, dated 1987).
Values after ≈ are worked out from the molar mass of the structure shown. Read-outs that look alike come from different tables or passages of the source.

Key:
[1] = Solubility in distilled water for injection; type: physicochemical; details: for solubility: component drug, distilled water for injection, 20° C.
[2] = Acute toxicity (LD50) in mice; details: mouse, in vivo, drug
Description: The intravenous and oral acute toxicity values (LD50) in mice of each drug-phospholipid complex of this invention were compared with those of the corresponding component drug.

[3] = Blood pressure lowering effect in dogs (Test 2); type: in vivo, dog (male mongrel dogs); details: intravenous
Procedure: (§1) The pharmacologic effect of the drug-phospholipid complex according to this invention administered by the intravenous route was compared with that of the component drug administered in the same manner using 10 aminals. Test (1): Antitumor Effect
Test (2): Blood Pressure Lowering Effect
Ten normal male mongrel dogs were intravenously administered with prostaglandin E1 and the blood pressure of each animal was measured using a catheter inserted into the carotid artery of the animal.
The blood pressure lowing ratio was calculated according to the following equation. [formula] wherein P1 represents the blood pressure after the administration and P2 represents that before the administration.

[4] = test system: L-1210 mouse ascites tumor cells; assay: Antitumor effect, life prolongation in L-1210 inoculated mice (Test 1); type: in vivo; details: intravenous, 5 days, BDF1 mice
Procedure: as §1
Ten male BDF1 mice ([…]) were inoculated with 10^6 cells of L-1210 mouse ascites tumor cells. After 24 hours from the inoculation Sapdicomycin as a drug was administered to the animals for continuous 5 days, and the number of days in which the test animals were dead. The life prolongation ratio was calculated according to the following equation. [formula] wherein A1 represents an average survival period (day) of control group (without administration) and A2 represents that of administered group.

[5] = set-up: species or system rat (male Wistar); details: rat, in vivo, iv, 1440 min
Description: (§2) The organ affinity of the drug-phospholipid complex according to this invention was compared with that of the component drug. […] Twenty-four hours after the administration, the degree of retention of the drug in each organ was estimated by determining the radio-activity level.

[6] = Oral route absorption in rats; set-up: species or system rat (male Wistar); details: rat, in vivo
Description: as §2, with “oral route absorption” for “organ affinity”, “invention administered” for “invention”, “drug similarly administered.” for “drug.”

[7] = intravenous, read-out: Acute Toxicity (LD50), Intravenous Administration, Drug
[8] = oral, read-out: Acute Toxicity (LD50), Oral Administration, Drug

Molecule	solubility [1] [µg/mL]	LD50 [2, 7] [mg/kg]	LD50 [2, 8] [mg/kg]	also measured
O=c1[nH]cc(F)c(=O)[nH]1 [5-Fluorouracil]	13000 (≈ 99900 µM)	173	249	
COc1ccc2c(c1)c(CC(=O)OCC(=O)O)c(C)n2C(=O)c1ccc(Cl)cc1 [Acemetacin, acemetacin]	400 (≈ 962 µM)			
COc1cccc2c1C(=O)c1c(O)c3c(c(O)c1C2=O)C[C@@](O)(C(=O)CO)C[C@@H]3O[C@H]1C[C@H](N)[C@H](O)[C@H](C)O1 [Adriamycin, adriamycin]	7000 (≈ 12900 µM)	9.1	737	
COc1cccc2c1C(=O)c1c(O)c3c(c(O)c1C2=O)C[C@@](O)(C(C)=O)C[C@@H]3O[C@H]1C[C@H](N)[C@H](O)[C@H](C)O1 [Daunomycin, daunomycin]	20000 (≈ 37900 µM)	23.5	271	
C[C@@H]1C[C@H]2[C@@H]3CCC4=CC(=O)C=C[C@]4(C)[C@@]3(F)[C@@H](O)C[C@]2(C)[C@@]1(O)C(=O)CO [Dexamethasone, dexamethasone]	50 (≈ 127 µM)			
CC(C(=O)O)c1ccc(-c2ccccc2)c(F)c1 (centres unmarked) [Flurbiprofen, flurbiprofen]	150 (≈ 614 µM)			
CCCCC[C@H](O)/C=C/[C@H]1[C@H](O)CC(=O)[C@@H]1CCCCCCC(=O)O [Prostaglandin E1, prostaglandin E1]	70 (≈ 197 µM)		7570	Blood pressure lowering ratio, Drug ([3]; 0.25 mg/kg): 4.8%; Blood pressure lowering ratio, Drug ([3]; 0.5 mg/kg): 7.7%; Blood pressure lowering ratio, Drug ([3]; 1.0 mg/kg): 10.5%
spadicomycin				Solubility, Component Drug ([1]; water): 55 mg/mL; Antitumor effect (life prolongation ratio), Drug ([4]; 2.5 mg/kg): 19%; Antitumor effect (life prolongation ratio), Drug ([4]; 5.0 mg/kg): 25%; Antitumor effect (life prolongation ratio), Drug ([4]; 10.0 mg/kg): 50%; Retention in kidney, Drug [5]: 129 dpm per Gram Organ Weight; Retention in liver, Drug [5]: 585 dpm per Gram Organ Weight; Retention in tumor, Drug [5]: 3800 dpm per Gram Organ Weight; Retention in whole blood, Drug [5]: 825 dpm per Gram Organ Weight; Absorption Rate, Drug [6]: 2.0%
